Source: US20140135310A1, “SULPHONAMIDE DERIVATIVES OF ALICYCLIC AMINES FOR THE TREATMENT OF CENTRAL NERVOUS SYSTEM DISEASES” (Adamed Sp. z o.o., priority 2011, published 2014)

Legend:
[1] = target: dopaminergic receptors D2 (Homo sapiens, UniProt P14416); assay: Radioligand binding assay, dopaminergic D2 receptors; conditions: binding assay, test compound 1×10^−6 M
Summary of the method: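 Radioligand displacement was measured by scintillation counting, with non-specific binding defined in the presence of excess unlabelled ligand. Competition curves were fitted to the Hill equation to give IC50, and Ki was derived by the Cheng–Prusoff equation.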

[2] = target: dopaminergic receptors D3 (Homo sapiens, UniProt P35462); assay: Radioligand binding assay, dopaminergic D3 receptors; conditions: test compound 1×10^−6 M
Summary of the method: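 Competition radioligand binding at human D2, D3 and D4.4 receptors, detected by scintillation counting; nonspecific binding defined with excess unlabelled ligand. Results as percent inhibition of control specific binding; IC50 by Hill-equation nonlinear regression; Ki via Cheng-Prusoff, with radioligand KD from Scatchard plot.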

[3] = target: T1, 5-HT1A receptor (rat hippocampus) (Rattus norvegicus, UniProt P19327); assay: Radioligand binding assay, serotoninergic 5-HT1A receptors; conditions: binding assay result in %, Table 5a;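 further: test compound at 1 µM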
T1 construct: hippocampus; from tissue; host or cells: rat hippocampus
T1 sequence (P19327 1-422): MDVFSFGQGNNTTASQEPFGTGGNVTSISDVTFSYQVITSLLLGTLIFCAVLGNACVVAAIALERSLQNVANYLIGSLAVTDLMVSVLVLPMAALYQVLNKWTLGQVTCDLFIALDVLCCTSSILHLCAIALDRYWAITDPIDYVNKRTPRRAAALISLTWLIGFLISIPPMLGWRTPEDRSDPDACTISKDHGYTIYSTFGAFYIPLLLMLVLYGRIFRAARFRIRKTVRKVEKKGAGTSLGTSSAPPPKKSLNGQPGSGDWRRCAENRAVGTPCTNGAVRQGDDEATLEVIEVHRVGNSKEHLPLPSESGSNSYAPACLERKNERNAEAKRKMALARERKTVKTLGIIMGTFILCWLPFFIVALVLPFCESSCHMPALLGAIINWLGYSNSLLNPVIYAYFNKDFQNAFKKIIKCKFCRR

[4] = target: T2, 5-HT2A receptor (Homo sapiens, UniProt P28223); assay: Radioligand binding assay, serotoninergic 5-HT2A receptors; conditions: binding assay result in %, Table 5a
T2 construct: purchased PerkinElmer
Summary of the method: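 Radioligand competition binding with scintillation counting; nonspecific binding defined by excess unlabelled ligand. Data as percent inhibition of control specific binding. IC50 by Hill-equation fit of competition curves; Ki by Cheng-Prusoff, with radioligand Kd from Scatchard plot.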

[5] = target: T3, 5-HT6 receptor (Homo sapiens, UniProt P50406); assay: Radioligand binding assay, serotoninergic 5-HT6 receptors; conditions: binding assay result in %, Table 5a;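 further: test compound at 1 µM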
T3 construct: purchased PerkinElmer
Summary of the method: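 Values are Ki from Cheng–Prusoff, taking IC50 from Hill nonlinear regression of competition curves and KD from a Scatchard plot. Specific binding was total minus binding with excess unlabelled ligand. Radioligand displacement was detected by scintillation counting, and data were also reported as percent of control specific binding.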

[6] = target: T4, 5-HT7 receptor (Homo sapiens, UniProt P34969); assay: Radioligand binding assay, serotoninergic 5-HT7 receptors; conditions: binding assay result in %, Table 5a;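 further: test compound at 1 µM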
T4 construct: purchased PerkinElmer
Summary of the method: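 Competition binding at human 5-HT7 receptors with a radioligand, detected by scintillation counting; non-specific binding was defined with excess unlabelled ligand. IC50 came from Hill-equation fits of competition curves, and Ki from Cheng–Prusoff using radioligand concentration and Scatchard-derived KD.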

[7] = test system: α1 adrenergic receptors (rat cerebral cortex); assay: Radioligand binding assay, adrenergic α1 receptors; conditions: test compound 1×10^−6 M
Summary of the method: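 Values derive from radioligand displacement, with non-specific binding defined by excess cold ligand and detection by scintillation. Hill-fit IC50s were converted to Ki via Cheng-Prusoff using Scatchard-derived Kd; percent inhibition of control specific binding also reported.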

[8] = target: T5, serotonin transporter (SERT) (Homo sapiens, UniProt P31645); assay: Radioligand binding assay, serotonin transporter (SERT); conditions: binding assay, test compound 1×10^−6 M
T5 construct: expressed in transfected cells; host or cells: CHO cells
Summary of the method: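 Radioligand competition binding with scintillation detection; specific binding is total minus binding under excess unlabelled ligand. Reported as % of control specific binding or % inhibition; IC50 from Hill-equation non-linear regression of competition curves, and Ki via Cheng-Prusoff using radioligand concentration and Scatchard-derived KD.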

T3 sequence (P50406 whole entry): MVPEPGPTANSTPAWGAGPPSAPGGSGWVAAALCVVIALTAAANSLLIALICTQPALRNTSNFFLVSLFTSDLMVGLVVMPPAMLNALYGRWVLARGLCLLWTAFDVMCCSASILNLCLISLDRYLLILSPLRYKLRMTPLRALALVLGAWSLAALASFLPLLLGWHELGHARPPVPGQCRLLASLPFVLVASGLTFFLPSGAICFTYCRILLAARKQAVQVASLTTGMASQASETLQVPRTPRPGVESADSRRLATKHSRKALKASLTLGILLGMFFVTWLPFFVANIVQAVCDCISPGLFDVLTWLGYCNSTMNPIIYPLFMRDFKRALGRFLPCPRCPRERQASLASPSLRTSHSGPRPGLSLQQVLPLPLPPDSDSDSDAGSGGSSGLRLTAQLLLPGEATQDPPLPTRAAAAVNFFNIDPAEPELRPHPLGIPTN
T2 sequence (P28223 whole entry): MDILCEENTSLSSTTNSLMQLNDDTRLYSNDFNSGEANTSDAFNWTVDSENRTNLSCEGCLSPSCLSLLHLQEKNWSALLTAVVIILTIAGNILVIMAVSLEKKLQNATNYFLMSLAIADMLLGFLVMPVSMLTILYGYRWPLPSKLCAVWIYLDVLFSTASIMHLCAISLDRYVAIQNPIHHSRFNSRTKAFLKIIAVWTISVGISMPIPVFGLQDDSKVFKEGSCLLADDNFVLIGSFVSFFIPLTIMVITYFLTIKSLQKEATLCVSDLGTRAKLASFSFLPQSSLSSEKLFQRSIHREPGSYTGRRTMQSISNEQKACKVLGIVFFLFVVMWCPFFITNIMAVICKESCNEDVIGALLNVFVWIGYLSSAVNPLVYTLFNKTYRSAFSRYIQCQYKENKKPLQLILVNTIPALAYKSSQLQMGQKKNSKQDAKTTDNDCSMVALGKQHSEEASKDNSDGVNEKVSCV
dopaminergic receptors D3, sequence (P35462 whole entry): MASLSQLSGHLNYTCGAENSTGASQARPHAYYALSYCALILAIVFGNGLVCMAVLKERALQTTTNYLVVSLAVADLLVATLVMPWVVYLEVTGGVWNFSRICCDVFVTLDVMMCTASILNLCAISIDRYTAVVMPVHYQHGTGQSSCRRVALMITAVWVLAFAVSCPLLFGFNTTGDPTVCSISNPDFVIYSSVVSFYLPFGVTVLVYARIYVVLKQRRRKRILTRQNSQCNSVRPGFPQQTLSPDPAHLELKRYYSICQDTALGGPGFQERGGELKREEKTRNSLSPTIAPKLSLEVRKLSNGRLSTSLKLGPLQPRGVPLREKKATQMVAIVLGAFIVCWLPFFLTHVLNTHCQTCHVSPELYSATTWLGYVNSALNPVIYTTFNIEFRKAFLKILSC
T4 sequence (P34969 whole entry): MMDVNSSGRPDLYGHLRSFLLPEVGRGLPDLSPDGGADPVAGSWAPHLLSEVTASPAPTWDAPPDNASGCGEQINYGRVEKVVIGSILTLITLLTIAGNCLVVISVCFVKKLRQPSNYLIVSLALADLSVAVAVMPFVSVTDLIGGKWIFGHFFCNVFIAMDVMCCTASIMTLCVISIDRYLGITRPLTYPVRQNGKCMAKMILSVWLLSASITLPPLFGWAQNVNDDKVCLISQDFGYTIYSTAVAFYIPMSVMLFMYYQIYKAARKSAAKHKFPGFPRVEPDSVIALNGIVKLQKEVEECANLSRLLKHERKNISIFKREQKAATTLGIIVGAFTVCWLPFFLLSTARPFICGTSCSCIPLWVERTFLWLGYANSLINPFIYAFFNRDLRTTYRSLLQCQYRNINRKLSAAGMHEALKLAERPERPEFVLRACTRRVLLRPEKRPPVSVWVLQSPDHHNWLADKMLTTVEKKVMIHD
dopaminergic receptors D2, sequence (P14416 whole entry): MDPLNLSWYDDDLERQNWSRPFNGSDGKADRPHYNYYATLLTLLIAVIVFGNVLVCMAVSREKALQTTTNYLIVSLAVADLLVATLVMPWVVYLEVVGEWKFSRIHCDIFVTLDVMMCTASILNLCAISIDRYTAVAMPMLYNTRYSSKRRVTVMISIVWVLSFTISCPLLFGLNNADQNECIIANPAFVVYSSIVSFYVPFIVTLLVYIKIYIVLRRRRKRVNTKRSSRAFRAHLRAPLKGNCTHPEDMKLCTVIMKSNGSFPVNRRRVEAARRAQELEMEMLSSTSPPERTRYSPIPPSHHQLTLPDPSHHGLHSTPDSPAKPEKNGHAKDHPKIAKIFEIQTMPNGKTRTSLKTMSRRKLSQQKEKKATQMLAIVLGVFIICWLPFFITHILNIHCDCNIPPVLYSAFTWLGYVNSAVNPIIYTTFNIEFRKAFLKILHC
T5 sequence (P31645 whole entry): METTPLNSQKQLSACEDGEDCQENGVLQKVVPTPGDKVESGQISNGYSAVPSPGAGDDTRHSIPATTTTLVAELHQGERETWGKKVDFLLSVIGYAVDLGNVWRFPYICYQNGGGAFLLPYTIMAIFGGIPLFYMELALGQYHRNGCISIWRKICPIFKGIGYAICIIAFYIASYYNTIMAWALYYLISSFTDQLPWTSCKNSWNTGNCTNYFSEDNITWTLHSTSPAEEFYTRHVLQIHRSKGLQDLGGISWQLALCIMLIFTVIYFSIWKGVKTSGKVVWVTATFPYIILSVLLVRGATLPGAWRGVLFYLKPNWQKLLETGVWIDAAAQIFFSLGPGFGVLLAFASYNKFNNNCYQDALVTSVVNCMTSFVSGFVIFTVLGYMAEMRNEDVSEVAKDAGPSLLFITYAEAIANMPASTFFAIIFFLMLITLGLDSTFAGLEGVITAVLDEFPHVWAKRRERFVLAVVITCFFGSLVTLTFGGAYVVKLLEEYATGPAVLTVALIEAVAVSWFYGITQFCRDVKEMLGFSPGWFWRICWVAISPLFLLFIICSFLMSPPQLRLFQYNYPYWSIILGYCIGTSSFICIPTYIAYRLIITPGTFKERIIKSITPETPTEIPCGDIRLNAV

| Structure (SMILES) | inhibition at 1 µM [1] | inhibition at 1 µM [2] | inhibition at 1 µM [3] | inhibition at 1 µM [4] | inhibition at 1 µM [5] | inhibition at 1 µM [6] | α1 [%] [7] | inhibition at 1 µM [8] | D2 [%] [1] | D3 [%] [2] | 5-HT1A [%] [3] | 5-HT2A [%] [4] | 5-HT6 [%] [5] | 5-HT7 [%] [6] | SERT [%] [8] |
| --- | --- | --- | --- | --- | --- | --- | --- | --- | --- | --- | --- | --- | --- | --- | --- |
| Cn1ccc2cc(S(=O)(=O)NCC3CN(CCCc4noc5cc(F)ccc45)C3)ccc21 [Compound 150, N-[[1-[3-(6-Fluoro-1,2-benzoxazol-3-yl)propyl]azetidin-3-yl]methyl]-1-methyl-indole-5-sulphonamide] | 53% | 60% | -9% | 85% | 65% | 84% | 98% | 12% |  |  |  |  |  |  |  |
| O=S(=O)(NC1CCN(CCCc2noc3cc(F)ccc23)C1)c1cnc2ccccn12 (centres unmarked) [Compound 30, N-[1-[3-(6-Fluoro-1,2-benzoxazol-3-yl)propyl]pyrrolidin-3-yl]imidazo-[1,2-a]pyridine-3-sulphonamide] | 62% | -2% | 5% | 95% | 77% | 82% | 84% | 36% |  |  |  |  |  |  |  |
| O=S(=O)(NCC1CCN(CCOc2ccc3cc[nH]c3c2)CC1)c1cccc2ccccc12 [Compound 71, N-[[1-[2-(1H-Indol-6-yloxy)ethyl]-4-piperidine]methyl]naphthalene-1-sulphonamide] |  |  |  |  |  |  | 36% |  | 27% | −1% | 28% | 26% | 80% | 31% | 49% |
| O=S(=O)(NCC1CCN(CCOc2cccc3c2OCCO3)C1)c1ccc(Cl)s1 (centres unmarked) [Compound 316, 5-Chloro-N-[[1-[2-(2,3-dihydro-1,4-benzodioxin-5-yloxy)ethyl]pyrrolidin-3-yl]-methyl]thiophene-2-sulphonamide] | -2% | 36% | 74% | 82% | 36% | 87% | 66% | 8% |  |  |  |  |  |  |  |
| O=S(=O)(NC1CCN(CCOc2cccc3c2OCCO3)CC1)c1ccccc1 [Compound 117, N-[1-[2-(2,3-Dihydro-1,4-benzodioxan-8-yloxy)ethyl]-4-piperidine]-benzenesulphonamide] |  |  |  |  |  |  | 53% |  | 24% | 29% | 76% | 86% | 34% | 93% | 33% |
| O=S(=O)(NC1CCN(CCOc2cccc3[nH]ccc23)C1)c1ccc2ccccc2c1 (centres unmarked) [Compound 54, N-[1-[2-(1H-Indol-4-yloxy)ethyl]pyrrolidin-3-yl]naphthalene-2-sulphonamide] | 83% | 105% | 90% | 88% | 87% | 102% | 90% | 46% |  |  |  |  |  |  |  |
| O=S(=O)(NCC1CCN(CCOc2cccc3ccccc23)C1)c1ccc(F)c(F)c1 (centres unmarked) [Compound 278, 3,4-Difluoro-N-[[1-[2-(1-naphthyloxy)ethyl]pyrrolidin-3-yl]methyl]benzenesulphonamide] | 31% | 94% | 84% | 91% | 85% | 102% | 37% | 91% |  |  |  |  |  |  |  |
| Cc1c(S(=O)(=O)NCC2CCN(CCOc3cccc4ccccc34)C2)sc2ccc(F)cc12 (centres unmarked) [Compound 271, 5-Fluoro-3-methyl-N-[[1-[2-(1-naphthyloxy)ethyl]pyrrolidin-3-yl]methyl]benzothiophene-2-sulphonamide] | 45% | 93% | 82% | 97% | 76% | 104% | −1% | 40% |  |  |  |  |  |  |  |
| O=S(=O)(NCC1CCN(CCCc2noc3cc(F)ccc23)CC1)c1cccc2ccccc12 [Compound 37, N-[[1-[3-(6-Fluoro-1,2-benzoxazol-3-yl)propyl]-4-piperidine]methyl]-naphthalene-1-sulphonamide] |  |  |  |  |  |  | 96% |  | 83% | 66% | 29% | 56% | 97% | 94% | 30% |
| O=S(=O)(NC1CCN(CCOc2cccc3[nH]ccc23)C1)c1ccccc1 (centres unmarked) [Compound 51, N-[1-[2-(1H-Indol-4-yloxy)ethyl]pyrrolidin-3-yl]benzenesulphonamide] | 54% | 103% | 91% | 67% | 10% | 101% | 77% | 6% |  |  |  |  |  |  |  |
| Cn1ccc2c(S(=O)(=O)NCC3CCN(CCOc4cccc5ccccc45)C3)cccc21 (centres unmarked) [Compound 275, 1-Methyl-N-[[1-[2-(1-naphthyloxy)ethyl]pyrrolidin-3-yl]methyl]indole-4-sulphonamide] | 66% | 94% | 86% | 91% | 84% | 111% | 53% | 93% |  |  |  |  |  |  |  |
| O=S(=O)(NCC1CCN(CCOc2cccc3c2OCCO3)C1)c1ccc(Cl)c(Cl)c1 (centres unmarked) [Compound 301, 3,4-Dichloro-N-[[1-[2-(2,3-dihydro-1,4-benzodioxin-5-yloxy)ethyl]-pyrrolidin-3-yl]methyl]benzenesulphonamide] | -22% | 34% | 96% | 81% | 61% | 98% | 46% | 38% |  |  |  |  |  |  |  |
| O=S(=O)(NCC1CN(CCOc2cccc3c2OCCO3)C1)c1ccc(-c2ccccc2)cc1 [Compound 178, N-[[1-[2-(2,3-Dihydro-1,4-benzodioxin-5-yloxy)ethyl]azetidin-3-yl]methyl]-4-phenyl-benzenesulphonamide] | 8% | 25% | 96% | 73% | 21% | 89% | 20% | -6% |  |  |  |  |  |  |  |
| O=S(=O)(NCC1CN(CCOc2cccc3c2OCCO3)C1)c1ccc2cc(Cl)ccc2c1 [Compound 174, 6-Chloro-N-[[1-[2-(2,3-dihydro-1,4-benzodioxin-5-yloxy)ethyl]azetidin-3-yl]methyl]naphthalene-2-sulphonamide] | 25% | 22% | 91% | 44% | 64% | 90% | 15% | 20% |  |  |  |  |  |  |  |
| O=S(=O)(NC1CCN(CCOc2cccc3c2OCCO3)C1)c1ccc2ccccc2c1 (centres unmarked) [Compound 99, N-[1-[2-(2,3-Dihydro-1,4-benzodioxan-8-yloxy)ethyl]pyrrolidin-3-yl]-naphthalene-2-sulphonamide] |  |  |  |  |  |  | 70% |  | 38% | 78% | 96% | 97% | 64% | 90% | 36% |
| Cc1c(S(=O)(=O)NC2CCN(CCCc3noc4cc(F)ccc34)CC2)sc2ccc(Cl)cc12 [Compound 326, 5-Chloro-N-[1-[3-(6-fluoro-1,2-benzoxazol-3-yl)propyl]-4-piperidyl]-3-methyl-benzothiophene-2-sulphonamide] | 86% | 61% | -1% | 97% | 83% | 91% | 70% | 10% |  |  |  |  |  |  |  |
